Literature values in patent US20090181849A1, “Agricultural chemical containing top dressing composition and process for use thereof” (priority 2007, published 2009).

Legend:
S. homoeocarpa = conditions: bent grass, blend of Cato:Crenshaw (50:50); disease pressure high
curvularia fungus = conditions: Kentucky bluegrass plants growing in sand; sprayed and fertilized in separate applications; not on bent grass or Bermuda grass plants

Row | SMILES | reduction of number of S. homoeocarpa infection centers (S. homoeocarpa) [%] | control of curvularia fungus (curvularia fungus)
1 | CSC(=O)c1cccc2nnsc12 [ASM, acibenzolar-5-methyl] | 38 | –
2 | O=[N+]([O-])NC1=NCCN1Cc1ccc(Cl)nc1 [imidacloprid] | – | successful control
